The numbers were not newly measured in US20140284468A1, “Cancer patient selection for administration of therapeutic agents using mass spectral analysis of blood-based samples” (Biodesix, Inc., priority 2010, published 2014), which cites them from elsewhere.

This data set deals with NSCLC, SCCHN, and CRC patients. The following applies: VeriStrat poor subgroup, monotherapy versus placebo.

In the case of `C#Cc1cccc(Nc2ncnc3cc(OCCOC)c(OCCOC)cc23)c1` [erlotinib], the treatment benefit result is listed as “essentially equivalent to treatment with placebo”.
